ChEMBL document CHEMBL6103568, “An overview of small-molecule agents for the treatment of psoriasis” (Bioorg Med Chem, 2025)
One block for each compound: values may come before it.

Columns and labels:
[1] = biological target: Tyrosine-protein kinase JAK2 (Homo sapiens, UniProt O60674); experiment: Inhibition of JAK2 (unknown origin)
[2] = biological target: 3',5'-cyclic-AMP phosphodiesterase 4B (Homo sapiens, UniProt Q07343); experiment: Inhibition of PDE4B (unknown origin)
[3] = biological target: Sphingosine 1-phosphate receptor 1 (Homo sapiens, UniProt P21453); experiment: Agonist activity at S1P1 (unknown origin) by HTRF assay; assay type: functional
[4] = biological target: Cytochrome P450 3A5 (Homo sapiens, UniProt P20815); experiment: Inhibition of CYP3A5 (unknown origin); assay type: ADME
[5] = biological target: Phosphodiesterase 4 (Homo sapiens, UniProt P27815+Q08499+Q07343+Q08493); experiment: Inhibition of PDE4 (unknown origin); assay type: protein assay

Cytochrome P450 3A5, sequence (P20815 whole entry): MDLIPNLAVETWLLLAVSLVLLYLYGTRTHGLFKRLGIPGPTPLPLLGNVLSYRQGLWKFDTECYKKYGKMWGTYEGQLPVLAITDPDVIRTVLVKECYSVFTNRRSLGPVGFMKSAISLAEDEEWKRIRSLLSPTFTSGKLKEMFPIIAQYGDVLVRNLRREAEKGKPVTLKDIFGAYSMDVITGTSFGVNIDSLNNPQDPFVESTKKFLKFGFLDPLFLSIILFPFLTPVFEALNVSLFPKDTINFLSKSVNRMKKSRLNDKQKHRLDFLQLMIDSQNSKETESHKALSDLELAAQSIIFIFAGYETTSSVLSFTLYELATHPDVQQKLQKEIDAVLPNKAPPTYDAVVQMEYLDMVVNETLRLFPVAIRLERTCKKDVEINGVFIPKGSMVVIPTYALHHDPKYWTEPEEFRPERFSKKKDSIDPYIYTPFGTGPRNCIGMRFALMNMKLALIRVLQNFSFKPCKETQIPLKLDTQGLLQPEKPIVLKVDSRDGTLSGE
Sphingosine 1-phosphate receptor 1, sequence (P21453 whole entry): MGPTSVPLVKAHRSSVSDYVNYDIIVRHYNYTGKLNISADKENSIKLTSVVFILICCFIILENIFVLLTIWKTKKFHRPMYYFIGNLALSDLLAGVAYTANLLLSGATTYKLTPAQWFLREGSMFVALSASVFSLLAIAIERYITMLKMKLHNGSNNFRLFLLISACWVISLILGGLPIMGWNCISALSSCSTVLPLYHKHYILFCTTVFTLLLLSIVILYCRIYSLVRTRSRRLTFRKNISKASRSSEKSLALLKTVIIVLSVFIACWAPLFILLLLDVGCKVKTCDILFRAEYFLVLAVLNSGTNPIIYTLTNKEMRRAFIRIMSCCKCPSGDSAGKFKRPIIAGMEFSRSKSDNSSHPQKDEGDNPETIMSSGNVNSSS
3',5'-cyclic-AMP phosphodiesterase 4B, sequence (Q07343 whole entry): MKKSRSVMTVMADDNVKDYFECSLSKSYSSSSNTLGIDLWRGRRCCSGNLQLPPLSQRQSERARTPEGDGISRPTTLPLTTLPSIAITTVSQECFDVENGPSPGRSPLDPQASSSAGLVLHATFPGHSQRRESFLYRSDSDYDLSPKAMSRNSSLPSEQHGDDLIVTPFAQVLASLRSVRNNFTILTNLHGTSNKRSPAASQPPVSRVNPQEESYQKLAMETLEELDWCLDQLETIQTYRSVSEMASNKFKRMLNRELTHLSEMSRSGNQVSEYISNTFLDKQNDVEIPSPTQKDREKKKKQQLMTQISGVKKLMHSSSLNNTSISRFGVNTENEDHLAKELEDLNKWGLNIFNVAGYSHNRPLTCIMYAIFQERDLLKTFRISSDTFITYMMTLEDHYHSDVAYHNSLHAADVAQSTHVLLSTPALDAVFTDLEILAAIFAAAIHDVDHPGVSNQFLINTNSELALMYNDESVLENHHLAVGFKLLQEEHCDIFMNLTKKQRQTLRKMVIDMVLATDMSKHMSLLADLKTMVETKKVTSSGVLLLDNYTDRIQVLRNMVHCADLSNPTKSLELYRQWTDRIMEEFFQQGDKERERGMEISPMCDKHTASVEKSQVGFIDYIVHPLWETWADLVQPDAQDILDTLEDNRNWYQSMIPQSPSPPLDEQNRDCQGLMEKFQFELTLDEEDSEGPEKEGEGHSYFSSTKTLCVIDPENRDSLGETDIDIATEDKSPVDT
Tyrosine-protein kinase JAK2, sequence (O60674 whole entry): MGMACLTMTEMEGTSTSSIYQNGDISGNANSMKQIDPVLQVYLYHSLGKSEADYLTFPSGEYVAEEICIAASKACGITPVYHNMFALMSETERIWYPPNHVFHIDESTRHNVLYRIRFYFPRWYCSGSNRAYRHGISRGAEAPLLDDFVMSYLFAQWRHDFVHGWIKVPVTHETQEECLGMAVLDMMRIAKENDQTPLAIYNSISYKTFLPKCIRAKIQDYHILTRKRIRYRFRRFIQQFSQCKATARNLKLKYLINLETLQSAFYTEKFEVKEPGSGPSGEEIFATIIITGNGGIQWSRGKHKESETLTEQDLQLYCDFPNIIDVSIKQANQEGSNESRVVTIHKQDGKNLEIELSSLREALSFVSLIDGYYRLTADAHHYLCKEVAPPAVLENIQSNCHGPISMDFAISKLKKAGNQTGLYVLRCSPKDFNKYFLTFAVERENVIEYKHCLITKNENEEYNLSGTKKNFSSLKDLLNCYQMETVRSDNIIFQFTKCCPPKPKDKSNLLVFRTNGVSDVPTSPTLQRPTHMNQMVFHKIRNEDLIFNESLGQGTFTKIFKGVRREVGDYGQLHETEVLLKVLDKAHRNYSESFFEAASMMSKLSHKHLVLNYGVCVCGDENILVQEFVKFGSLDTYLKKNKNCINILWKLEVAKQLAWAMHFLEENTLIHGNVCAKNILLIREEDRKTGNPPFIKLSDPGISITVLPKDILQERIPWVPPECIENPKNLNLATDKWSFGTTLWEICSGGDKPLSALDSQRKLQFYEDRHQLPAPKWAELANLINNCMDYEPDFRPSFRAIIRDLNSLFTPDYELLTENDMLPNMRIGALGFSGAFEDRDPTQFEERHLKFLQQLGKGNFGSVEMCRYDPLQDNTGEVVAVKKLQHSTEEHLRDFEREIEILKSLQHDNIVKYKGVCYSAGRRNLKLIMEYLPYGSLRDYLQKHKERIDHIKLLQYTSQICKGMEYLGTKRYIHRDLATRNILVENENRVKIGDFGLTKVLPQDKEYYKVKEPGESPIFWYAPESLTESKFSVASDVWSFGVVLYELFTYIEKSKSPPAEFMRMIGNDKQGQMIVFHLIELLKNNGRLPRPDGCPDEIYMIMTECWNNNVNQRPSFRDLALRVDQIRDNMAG

Structure (SMILES): CCS(=O)(=O)N1CC(CC#N)C1n1cc(-c2ncnc3[nH]ccc23)cn1 (stereo not given)
IC50 [1]: 5.7 nM

Structure (SMILES): CCC/N=C1/S/C(=C\c2ccc(OC[C@H](O)CO)c(Cl)c2)C(=O)N1c1ccccc1C
EC50 [3]: 6 nM

Structure (SMILES): O=C(O)CC1CCN(C(=O)c2ccc(Cl)c(Cn3ccc4cc(C(F)(F)F)cc(Cl)c43)c2Cl)CC1 [CEDIROGANT]
IC50 [4]: 206 nM

The remaining lines, values ahead:

IC50 [2]: 74 nM
Structure (SMILES): COc1ccc([C@H](N2C(=O)c3cccc(NC(C)=O)c3C2=O)S(C)(=O)=O)cc1OC

IC50 [5]: 114 nM
Structure (SMILES): CCOc1cc([C@@H](CS(C)(=O)=O)N2C(=O)c3csc(NC(C)=O)c3C2=O)ccc1OC
